# Test results published in US5569471A, “Medicine for the treatment of tumor” (priority 1993, dated 1996).
# “Also recorded” adds a separate entry of the source.
# How the values were obtained:
# T-ALL cells [1] = test: Test for confirming the effect of enhancing antitumor activity by successive dosage; format: cell-based, human; conditions: FIG. 3
# Protocol: The tumor cell killing effect was investigated by successively administering 4-piperidino-piperidine and an antitumor drug to T-ALL cells.
# First, T-ALL cells were cultured in a plurality of culture media containing 4-piperidino-piperidine at different concentrations (2.5, 12.5, 25 and 50 μg/ml) for 6 days. […] The results are shown in FIG. 3, which employes a relative expression where the number of lethal cells in the standard cell groups was taken as 100% (shown by a horizontal perforated line). The numbers 1, 2, 3 and 4 given for each drug indicate that the concentration of 4-piperidino-piperidine used for the culture is 2.5, 12.5, 25 and 50 μg/ml, respectively.
# [2] = tested on: human myeloblastic leukemia cells (K-562); test: Test for confirming the effect of enhancing antitumor activity by a simultaneous dosage, K-562 cells; format: cell-based; conditions: 4-piperidino-piperidine 2.5 μg/ml simultaneously; drug doses of Table 3; FIG. 5
# Protocol: (§1) The numbers of the lethal cells were counted in cases where 4-piperidino-piperidine (2.5 μg/ml) and each of the ten kinds of the antitumor drugs listed in Table 3 were simultaneously dosed (in small amounts and large amounts for each drug), and where the ten kinds of the antitumor drugs were independently and singly dosed (in small amounts and large amounts for each drug).
# (§2) The procedure of Example 9 was repeated by using human myeloblastic leukemia cells (K-562) in place of the T-ALL cells.
# [3] = tested on: cisplatin-resistant human myeloid leukemia cells (K-562); test: Test for confirming the resistance dissolving effect, cisplatin-resistant cells; format: cell-based; conditions: FIG. 2; for cell killing effect, single dose: 4-piperidino-piperidine 2.5 μg/ml alone, cisplatin 1 alone, vs control
# Source text: As drug-fast cells, two kinds of human myeloid leukemia cells (K-562) which had acquired drug resistance against adriamycin (ADR) and cisplatin were used (see Kaoru MIURA, et al., "NK and LAK cell sensitivity and HLA expression" 51st Conference of Japan Cancer Association, page 252, 1992; and Nobutaka IMAIZUMI, Yoichiro KUSUKI, Chie KAWACHI, et al., "Establishing adriamycin-resistant strains and review on the mechanism of resistance", Oncologoa, 21, 89-94, 1988). In the test, adriamycin (ADR), cisplatin, and 4-piperidino-piperidine were dosed singly or in combination against the two kinds of the drug-fast cells, and the number of the lethal cells were counted.
# T-ALL cells [4] = test: Test for confirming the effect of enhancing antitumor activity by a simultaneous dosage, T-ALL cells; format: cell-based, human; conditions: 4-piperidino-piperidine 2.5 μg/ml simultaneously, FIG. 4
# Protocol: as §1, §2
# Toxicity test = conditions: in vivo; species and route not given
# Protocol: The LD50 value of 4-piperidino-piperidine is about 200 to 300 mg/kg. Therefore, ordinary dose will not cause any risk.
# [5] = tested on: T-cells derived from human acute leukemia (RPMI-8402, T-ALL cells); test: Test for confirming the inhibitory effect on tumor cell propagation (6-day culture, counting of lethal and propagated cells); format: cell-based; conditions: 2.5, 12.5, 25, 50, 80 and 100 μg/ml, FIG. 1
# Protocol: To samples of T-cells derived from human acute leukemia (RPMI-8402, T-ALL cells, see Minowada, J. and Moore, G. E., In Comparative Leukemia Research, Eds. Ito, Y. and Dutcher, R. M., Univ. Tokyo Press, Tokyo, pp. 251-261, 1975), 4-piperidino-piperidine (4-PP) in various concentrations was added (0, 2.5, 12.5, 25, 50, 80 and 100 μg/ml). After a 6-day culture, lethal cells and propagated cells were counted.
# [6] = both drug concentrations (DNR 0.01/0.05, ACR 0.05/0.1, 5-FU 5/10 μg/ml)
# [7] = 4-piperidino-piperidine precedently dosed, all concentration groups (2.5, 12.5, 25 and 50 μg/ml), ACR 0.05, MTX 0.01 μg/ml
# [8] = 4-piperidino-piperidine precedently dosed at 12.5, 25 and 50 μg/ml, DNR 0.05, 5-FU 10 μg/ml
# [9] = in the concentration of 0.05 μg/ml
smiles,measurement,setting,value
"CCc1c2c(nc3ccc(OC(=O)N4CCC(N5CCCCC5)CC4)cc13)-c1cc3c(c(=O)n1C2)COC(=O)[C@]3(O)CC [CPT-11, 7-Ethyl-10-piperidino-piperidinocarboxycamptothecin]",enhancement of antitumor drug effect (lethal cells relative to standard cells),"T-ALL cells [1]; 4-piperidino-piperidine precedently dosed at 25 and 50 μg/ml, CPT-11 10 μg/ml",enhanced
CC[C@]1(O)C[C@H]2CN(CCc3c([nH]c4ccccc34)[C@@](C(=O)OC)(c3cc4c(cc3OC)N(C=O)[C@H]3[C@@](O)(C(=O)OC)[C@H](OC(C)=O)[C@]5(CC)C=CCN6CC[C@]43[C@@H]65)C2)C1 [VCR],enhancement of antitumor activity by combined use with 4-piperidino-piperidine,[2],enhanced
N.N.[Cl][Pt][Cl] [cisplatin],enhancement of antitumor activity by combined use with 4-piperidino-piperidine,[2],enhanced
same,"cell killing effect, single dose",[3],almost the same cell killing effect as that of the control group
CCC1(O)CC(OC2CC(N(C)C)C(OC3CC(O)C(OC4CCC(=O)C(C)O4)C(C)O3)C(C)O2)c2c(cc3c(c2O)C(=O)c2c(O)cccc2C3=O)C1C(=O)OC (stereo not shown) [ACR],enhancement of antitumor activity by combined use with 4-piperidino-piperidine,T-ALL cells [4]; [6],enhanced
same,enhancement of antitumor drug effect (lethal cells relative to standard cells),T-ALL cells [1]; [7],enhanced effects
COc1cccc2c1C(=O)c1c(O)c3c(c(O)c1C2=O)C[C@@](O)(C(C)=O)C[C@@H]3O[C@H]1C[C@H](N)[C@H](O)[C@H](C)O1 [DNR],enhancement of antitumor activity by combined use with 4-piperidino-piperidine,T-ALL cells [4]; [6],enhanced
same,enhancement of antitumor activity by combined use with 4-piperidino-piperidine,[2],enhanced
same,enhancement of antitumor drug effect (lethal cells relative to standard cells),T-ALL cells [1]; [8],enhanced effects
CC[C@]1(O)C[C@@H]2CN(CCc3c([nH]c4ccccc34)[C@@](C(=O)OC)(c3cc4c(cc3OC)N(C)[C@H]3[C@@](O)(C(N)=O)[C@H](O)[C@]5(CC)C=CCN6CC[C@]43[C@@H]65)C2)C1 [VDS],enhancement of antitumor activity by combined use with 4-piperidino-piperidine,T-ALL cells [4]; [9],enhanced
same,enhancement of antitumor activity by combined use with 4-piperidino-piperidine,[2],enhanced
COc1cc([C@@H]2c3cc4c(cc3[C@@H](O[C@@H]3O[C@@H]5CO[C@@H](C)O[C@H]5[C@H](O)[C@H]3O)[C@H]3COC(=O)[C@H]23)OCO4)cc(OC)c1O [etoposide],enhancement of antitumor activity by combined use with 4-piperidino-piperidine,[2],enhanced
C1CCN(C2CCNCC2)CC1 [4-piperidino-piperidine],LD50,Toxicity test,200 to 300 mg/kg
same,"cell killing effect, single dose",[3],almost the same cell killing effect as that of the control group
same,"cell killing effect, simultaneous dose (resistance dissolving)","[3]; cisplatin and 4-piperidino-piperidine simultaneously dosed, compared with each dosed singly",significantly enhanced
same,number of propagated cells,[5],decreased in a dose-dependent manner
same,number of lethal cells (tumor cell killing effect),[5]; vs control,does not have tumor cell killing effect per se; also recorded: not significantly different from the count of the control group
O=C1c2c(O)ccc(O)c2C(=O)c2c(NCCNCCO)ccc(NCCNCCO)c21 [Mitoxantrone],enhancement of antitumor activity by combined use with 4-piperidino-piperidine,[2],enhanced
same,enhancement of antitumor drug effect (lethal cells relative to standard cells),"T-ALL cells [1]; 4-piperidino-piperidine precedently dosed at 2.5 and 50 μg/ml, mitoxantrone 0.05 μg/ml",enhanced effects
"O=c1[nH]cc(F)c(=O)[nH]1 [5-FU, 5-Fluorouracil]",enhancement of antitumor activity by combined use with 4-piperidino-piperidine,T-ALL cells [4]; [6],enhanced
same,enhancement of antitumor drug effect (lethal cells relative to standard cells),T-ALL cells [1]; [8],enhanced effects
COc1cccc2c1C(=O)c1c(O)c3c(c(O)c1C2=O)C[C@@](O)(C(=O)CO)C[C@@H]3O[C@H]1C[C@H](N)[C@H](O)[C@H](C)O1 [ADR],enhancement of antitumor activity by combined use with 4-piperidino-piperidine,T-ALL cells [4]; [9],enhanced
same,enhancement of antitumor activity by combined use with 4-piperidino-piperidine,[2],enhanced
CN(Cc1cnc2nc(N)nc(N)c2n1)c1ccc(C(=O)N[C@@H](CCC(=O)O)C(=O)O)cc1 [MTX],enhancement of antitumor activity by combined use with 4-piperidino-piperidine,[2],enhanced
same,enhancement of antitumor drug effect (lethal cells relative to standard cells),T-ALL cells [1]; [7],enhanced effects
